Laboratory results from patent publication US20240317721A1, “PYRAZOLYL DERIVATIVES AS INHIBITORS OF THE KRAS MUTANT PROTEIN” (NOVARTIS AG, priority 2021, published 2024).
pIC50: −log10 of the molar value.

Target: KRasG12C (M1-K169, biotinylated on the N-terminus) (Homo sapiens (Human), UniProt P01116, G12C)
Assay: Covalent competition assay: scintillation proximity assay (SPA) quantifying covalent modification of KRASG12C
Assay type: binding
Conditions: competition with radiolabeled covalent probe (Compound B/Compound A), 2 hours incubation, 10 nM KRasG12C
Experimental: Cells were harvested by centrifugation and frozen at −80° C. until further processing. […] The cells were lysed by 4 passages through an Avestin Emulsiflex at about 20000 psi and insoluble debris removed by centrifugation and filtered through a 0.45 µm Durapore membrane (Millipore). […] Eluted protein fractions were analyzed by Novex NuPage 4-12% PAGE. […] The protein in the flow through was subjected to a final polishing step on a HiLoad 16/60 Superdex 200 prep grade size-exclusion column pre-equilibrated with SEC-buffer (20 mM HEPES pH 7.4, 150 mM NaCl, 5 mM MgCl2, 1 µM GDP). Positive fractions were determined by PAGE (Novex NuPage 4-12% BisTris) analysis.
A scintillation proximity assay (SPA) was used to determine the potency of the compounds.
This assay measures the ability of the test compound to compete with the radiolabeled covalent probe for binding to and covalently modify KRASG12C.
(see above for synthesis of Compound A and Compound B). A serial dilution of the compounds to be tested is mixed with a fixed concentration of the radiolabeled covalent probe before incubation with KRASG12C:GDP as described below. KRASG12C can either be bound by the radiolabeled covalent probe (Compound B), resulting in light being emitted from the beads, or bound by covalent test compound preventing signal generation.
A 1/20 isotopic dilution of labeled (Compound B) and non-labeled covalent (Compound A) probe was prepared and added to all wells on the plate. The reaction was started by addition of KRasG12C (M1-K169, biotinylated on the N-terminus) to the compounds and incubated for 2 hours with continuous agitation allowing for full modification of KRasG12C with probe or test compounds. Final concentrations in an assay volume of 40 μL were 10 nM KRasG12C, 25 nM radio-ligand and 475 nM unlabelled ligand. The assay buffer contained 20 mM Tris-HCl pH 7.5 (Invitrogen), 150 mM NaCl (Sigma Aldrich), 0.1 mM MgCl2 (Sigma Aldrich), and 0.01% Tween-20 (Sigma Aldrich). Following addition of 50 μL of a 400 μg/mL suspension of streptavidin-coated YSi beads (Perkin Elmer), plates were incubated for a further 30 min with continuous agitation before reading the plates on a scintillation counter (Topcount NXT 384 (Packard).
Evaluation was carried out using assay data analysis software (such as the standard Novartis in-house Helios software application, Novartis Institutes for BioMedical Research, unpublished) using the methods described in Formenko et al., Robust Regression for high-throughput screening, Computer Methods and Programs in Biomedicine, 2006, 82, 31-37. Following normalization of activity values for the wells to % inhibition (% inhibition=[(high control−sample)/(high control−low control)]×100), IC50 fitting was carried out from the duplicate determinations present on each plate according to Formenko et al., 2006.
Evaluation can also be carried out using commercially available software which is designed to derive IC50 values using 4-parameter fits (e.g. GraphPad Prism, XL fit).

Row | SMILES | pIC50
1 | C=CC(=O)N1CC2(CC(n3nc(N4CCN(C(C)=O)CC4(C)C)c(-c4c(C)c(C)cc5[nH]ncc45)c3C)C2)C1 (single isomer, unassigned) [Example 1a, 1-(6-(3-(4-Acetyl-2,2-dimethylpiperazin-1-yl)-4-(5,6-dimethyl-1H-indazol-4-yl)-5-methyl-1H-pyrazol-1-yl)-2-azaspiro[3.3]heptan-2-yl)prop-2-en-1-one] | 7.07
2 | C=CC(=O)N1CC2(CC(n3nc(N4CCN(C(C)=O)CC4(C)C)c(-c4c(C)c(C)cc5[nH]ncc45)c3C)C2)C1 (single isomer, unassigned) [Example 1b, 1-(6-(3-(4-Acetyl-2,2-dimethylpiperazin-1-yl)-4-(5,6-dimethyl-1H-indazol-4-yl)-5-methyl-1H-pyrazol-1-yl)-2-azaspiro[3.3]heptan-2-yl)prop-2-en-1-one] | 4.97
3 | C=CC(=O)N1CC2(CC(n3nc(N4CCN(C(C)=O)CC4)c(-c4c(C)c(C)cc5[nH]ncc45)c3C)C2)C1 (single isomer, unassigned) [Example 2a, 1-(6-(3-(4-acetylpiperazin-1-yl)-4-(5,6-dimethyl-1H-indazol-4-yl)-5-methyl-1H-pyrazol-1-yl)-2-azaspiro[3.3]heptan-2-yl)prop-2-en-1-one] | < 4.30
4 | C=CC(=O)N1CC2(CC(n3nc(N4CCN(C(C)=O)CC4)c(-c4c(C)c(C)cc5[nH]ncc45)c3C)C2)C1 (single isomer, unassigned) [Example 2b, 1-(6-(3-(4-acetylpiperazin-1-yl)-4-(5,6-dimethyl-1H-indazol-4-yl)-5-methyl-1H-pyrazol-1-yl)-2-azaspiro[3.3]heptan-2-yl)prop-2-en-1-one] | 5.49
5 | C=CC(=O)N1CC2(CC(n3nc(N4CCn5nccc5C4)c(-c4c(Cl)c(C)cc5[nH]ncc45)c3C)C2)C1 (single isomer, unassigned) [Example 10a, 1-(6-(4-(5-Chloro-6-methyl-1H-indazol-4-yl)-3-(6,7-dihydropyrazolo[1,5-a]pyrazin-5(4H)-yl)-5-methyl-1H-pyrazol-1-yl)-2-azaspiro[3.3]heptan-2-yl)prop-2-en-1-one] | 4.30
6 | C=CC(=O)N1CC2(CC(n3nc(N4CCn5nccc5C4)c(-c4c(Cl)c(C)cc5[nH]ncc45)c3C)C2)C1 (single isomer, unassigned) [Example 10b, 1-(6-(4-(5-Chloro-6-methyl-1H-indazol-4-yl)-3-(6,7-dihydropyrazolo[1,5-a]pyrazin-5(4H)-yl)-5-methyl-1H-pyrazol-1-yl)-2-azaspiro[3.3]heptan-2-yl)prop-2-en-1-one] | 6.98
7 | C=CC(=O)N1CC2(CC(n3nc(N4CCc5c(cnn5C)C4)c(-c4c(Cl)c(C)cc5[nH]ncc45)c3C)C2)C1 (single isomer, unassigned) [Example 11a, 1-(6-(4-(5-chloro-6-methyl-1H-indazol-4-yl)-5-methyl-3-(1-methyl-1,4,6,7-tetrahydro-5H-pyrazolo[4,3-c]pyridin-5-yl)-1H-pyrazol-1-yl)-2-azaspiro[3.3]heptan-2-yl)prop-2-en-1-one] | < 4.30
8 | C=CC(=O)N1CC2(CC(n3nc(N4CCc5c(cnn5C)C4)c(-c4c(Cl)c(C)cc5[nH]ncc45)c3C)C2)C1 (single isomer, unassigned) [Example 11b, 1-(6-(4-(5-chloro-6-methyl-1H-indazol-4-yl)-5-methyl-3-(1-methyl-1,4,6,7-tetrahydro-5H-pyrazolo[4,3-c]pyridin-5-yl)-1H-pyrazol-1-yl)-2-azaspiro[3.3]heptan-2-yl)prop-2-en-1-one] | 6.92
9 | C=CC(=O)N1CC2(CC(n3nc(N4[C@H](C)CN(C(C)=O)C[C@@H]4C)c(-c4c(Cl)c(C)cc5[nH]ncc45)c3C)C2)C1 (single isomer, unassigned) [Example 13a] | < 4.30
10 | C=CC(=O)N1CC2(CC(n3nc(N4[C@H](C)CN(C(C)=O)C[C@@H]4C)c(-c4c(Cl)c(C)cc5[nH]ncc45)c3C)C2)C1 (single isomer, unassigned) [Example 13b] | 5.68
11 | C=CC(=O)N1CC2(CC(n3nc(N4CCc5cnn(C)c5C4)c(-c4c(Cl)c(C)cc5[nH]ncc45)c3C)C2)C1 (single isomer, unassigned) [Example 14a, 1-(6-(4-(5-chloro-6-methyl-1H-indazol-4-yl)-5-methyl-3-(1-methyl-1,4,5,7-tetrahydro-6H-pyrazolo[3,4-c]pyridin-6-yl)-1H-pyrazol-1-yl)-2-azaspiro[3.3]heptan-2-yl)prop-2-en-1-one] | < 4.30
12 | C=CC(=O)N1CC2(CC(n3nc(N4CCc5cnn(C)c5C4)c(-c4c(Cl)c(C)cc5[nH]ncc45)c3C)C2)C1 (single isomer, unassigned) [Example 14b, 1-(6-(4-(5-chloro-6-methyl-1H-indazol-4-yl)-5-methyl-3-(1-methyl-1,4,5,7-tetrahydro-6H-pyrazolo[3,4-c]pyridin-6-yl)-1H-pyrazol-1-yl)-2-azaspiro[3.3]heptan-2-yl)prop-2-en-1-one] | 6.44
13 | C=CC(=O)N1CC2(CC(n3nc(N4CCc5ncncc5C4)c(-c4c(Cl)c(C)cc5[nH]ncc45)c3C)C2)C1 (single isomer, unassigned) [Example 15a, 1-(6-(4-(5-chloro-6-methyl-1H-indazol-4-yl)-3-(7,8-dihydropyrido[4,3-d]pyrimidin-6(5H)-yl)-5-methyl-1H-pyrazol-1-yl)-2-azaspiro[3.3]heptan-2-yl)prop-2-en-1-one] | 4.74
14 | C=CC(=O)N1CC2(CC(n3nc(N4CCc5ncncc5C4)c(-c4c(Cl)c(C)cc5[nH]ncc45)c3C)C2)C1 (single isomer, unassigned) [Example 15b, 1-(6-(4-(5-chloro-6-methyl-1H-indazol-4-yl)-3-(7,8-dihydropyrido[4,3-d]pyrimidin-6(5H)-yl)-5-methyl-1H-pyrazol-1-yl)-2-azaspiro[3.3]heptan-2-yl)prop-2-en-1-one] | 6.52
15 | C=CC(=O)N1CC2(CC(n3nc(N4CCN(C(C)=O)CC4(C)C)c(-c4c(Cl)c(C)cc5[nH]ncc45)c3C)C2)C1 (single isomer, unassigned) [Example 18a, 1-(6-(3-(4-acetyl-2,2-dimethylpiperazin-1-yl)-4-(5-chloro-6-methyl-1H-indazol-4-yl)-5-methyl-1H-pyrazol-1-yl)-2-azaspiro[3.3]heptan-2-yl)prop-2-en-1-one] | 5.21
16 | C=CC(=O)N1CC2(CC(n3nc(N4CCN(C(C)=O)CC4(C)C)c(-c4c(Cl)c(C)cc5[nH]ncc45)c3C)C2)C1 (single isomer, unassigned) [Example 18b, 1-(6-(3-(4-acetyl-2,2-dimethylpiperazin-1-yl)-4-(5-chloro-6-methyl-1H-indazol-4-yl)-5-methyl-1H-pyrazol-1-yl)-2-azaspiro[3.3]heptan-2-yl)prop-2-en-1-one] | 7.51
17 | C=CC(=O)N1CC2(CC(n3nc(N4CCn5ccnc5C4)c(-c4c(Cl)c(C)cc5[nH]ncc45)c3C)C2)C1 (single isomer, unassigned) [Example 19a, 1-(6-(4-(5-chloro-6-methyl-1H-indazol-4-yl)-3-(5,6-dihydroimidazo[1,2-a]pyrazin-7(8H)-yl)-5-methyl-1H-pyrazol-1-yl)-2-azaspiro[3.3]heptan-2-yl)prop-2-en-1-one] | 6.05
